Measurements published in US4667033A, “Substituted 6-(thien-2-yl)-3(2H)-pyridazinones” (A. Nattermann & Cie GmbH, priority 1983, dated 1987).

How the values were obtained:
[1] = target: T1, imipramin-fixation sites (Rattus norvegicus, UniProt P31652); test: Inhibition of 3H-Imipramin binding (imipramin-fixation sites); details: for IC50: log-probit-analysis
T1 construct: from tissue
Excerpt: (§1) III. Determination of activity to central nervous system.
(§2) The following compounds have been tested for their activity to benzodiazepin-receptors and imipramin-fixation sites in comparison to the known compounds Amitriptylinoxid and Medazepam:
(§3) The determination of their inhibitory activity has been effected corresponding to H. W. Damm et al., Res. Comm. chem. path. Pharmacol. 22, 597-600 (1978) or, respectively, M. Briley et al., Eur. J. Pharmacol. 72, 377-380 (1981). The separation of the bound from the free ligand concentration is effected by filtration. The used ligands Flunitrazepam and Imipramin has been marked by tritium.
(§4) Half maximum inhibitory values have been determined by means of a […]

[2] = tested on: benzodiazepin-receptors; test: Inhibition of 3H-Flunitrazepam binding (benzodiazepin-receptors); details: for IC50: log-probit-analysis
Excerpt: as §1, §2, §3, §4

[3] = tested on: narcotized cat; test: Determination of the myocardial effect in the narcotized cat; assay type: in vivo
Excerpt: II. Determination of the myocardial effect in the narcotized cat.
10 cats of both sexes are narcotized with chloralose-urethane (0.25% urethane, 0.05% chloralose per kilogram). To ease the spontaneous respiration there was effected a tracheotomy. The following hemodynamic parameters were noted down:
The arteriel systolic and diastolic blood pressure by means of a polyethylene cathether in the right-hand Arteria femoralis registered by means of a Statham element type P23 DB. The pulse frequency was obtained from the blood pressure amplitude and registered by means of a cardiotachometer (type EKA-pulse).
The increase of isovolumetric blood pressure was determined by means of a catheter tip manometer of the type PC 350 A of the Millar Company, USA, introduced to the Arteria carotis communis left-ventricullary and was determined by subsequent differentiation (amplifier of Messrs. Sachs).
The known values have been registered continuously by a Beckmann-Dynograph of the type R. There are given the values in an interval of 2 minutes.
The test animals have been heparinized with 500 I.E. of Liquemin®.
The test compounds are dissolved as follows:
Compound A in 50% glycofurol with heating,
Compound B in 10% glycofurol and 5% HCl with heating.
The test compounds have been administered at consecutively increasing dosages at a volume of 0.1 cc./kg. (Arteria femoralis). The total time of injection was […]. The next dose has been administered only after the complete dying-out of the effect of the previous administration.

[4] = tested on: isolated right-hand atrium; test: Chronotropic effect in spontaneously pulsing right-hand atrium of guinea pigs; design: species or system guinea pig; details: Cavia porcellus, mean percentage change to starting value, six determinations; for activation at 100 µM: 1 × 10^-4 mol/l, A in 1 × 10^-4 molar citric acid, B in tetraglycol and dilute hydrochloric acid
Protocol: (§5) I. Test to show inotropic effectiveness in the isolated atrium of guinea pigs.
(§6) The measurements have been effected on isolated atria of guinea pigs. The effect to pulse frequency (chronotropy) is determined at the spontaneously pulsing right-hand atrium. The effect to the contractility (inotropy) is determined at the electrically stimulated left-hand atrium. The mean values of the percentage change to the starting value from six different determinations in each test is given hereinafter.

[5] = tested on: isolated left-hand atrium; test: Inotropic effectiveness in electrically stimulated left-hand atrium of guinea pigs; design: species or system guinea pig; details: Cavia porcellus, mean percentage change to starting value, six determinations, read-out: Inotropic Effect; for activation at 100 µM: 1 × 10^-4 mol/l, A in 1 × 10^-4 molar citric acid, B in tetraglycol and dilute hydrochloric acid
Protocol: as §5, §6

[6] = 1 × 10^-3 mol/l, in tetraglycol and dilute hydrochloric acid

T1 sequence (P31652 whole entry): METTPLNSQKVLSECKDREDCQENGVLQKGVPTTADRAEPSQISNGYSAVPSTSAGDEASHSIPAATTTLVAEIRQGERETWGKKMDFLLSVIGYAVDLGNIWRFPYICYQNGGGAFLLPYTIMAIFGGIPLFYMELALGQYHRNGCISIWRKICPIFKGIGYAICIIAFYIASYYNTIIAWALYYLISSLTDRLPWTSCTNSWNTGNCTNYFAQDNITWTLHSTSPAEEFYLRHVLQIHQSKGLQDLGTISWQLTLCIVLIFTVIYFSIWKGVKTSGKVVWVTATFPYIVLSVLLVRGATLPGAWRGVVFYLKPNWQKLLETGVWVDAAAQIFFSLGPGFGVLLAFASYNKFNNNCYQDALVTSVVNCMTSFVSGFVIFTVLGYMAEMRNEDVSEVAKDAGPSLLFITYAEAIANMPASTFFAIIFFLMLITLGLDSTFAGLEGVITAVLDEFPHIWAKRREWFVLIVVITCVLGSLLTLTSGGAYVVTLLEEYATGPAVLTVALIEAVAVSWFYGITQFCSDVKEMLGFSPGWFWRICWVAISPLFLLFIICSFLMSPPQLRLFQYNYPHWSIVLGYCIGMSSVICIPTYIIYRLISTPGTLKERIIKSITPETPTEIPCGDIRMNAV

C[N+](C)([O-])CCC=C1c2ccccc2CCc2ccccc21 [Amitriptylinoxid, reference compound] showed an IC50 [1] of 24 µM.
In the case of Cl.O=c1ccc(-c2ccc(Cn3cccn3)s2)nn1CCN1CCOCC1 [D, 2-(2-Morpholino-ethyl)-6-[5-(pyrazol-1-yl-methyl)-thien-2-yl]-3(2H)-pyridazinon-hydrochloride], the “3H-Flunitrazepam % Inhibition” value ([2]; 1 × 10^-4 mole/l) is reported as 49%, the “3H-Flunitrazepam % Inhibition” value ([2]; 1 × 10^-6 mole/l) is reported as 2% and the IC50 [2] is reported as 60 µM. The “3H-Imipramin % Inhibition” value ([1]; 1 × 10^-4) was 87%, the “3H-Imipramin % Inhibition” value ([1]; 1 × 10^-6 mole/l) was 34% and the IC50 [1] was 20 µM.
Cl.O=c1ccc(-c2ccc(Cn3ccnc3)s2)nn1CCCN1CCCCC1 [G, 6-[5-(Imidazol-1-yl-methyl)-thien-2-yl]-2-(3-piperidino-propyl)-3(2H)-pyridazinon-hydrochloride] was tested, and the “3H-Flunitrazepam % Inhibition” value ([2]; 1 × 10^-4 mole/l) was 40%, the “3H-Flunitrazepam % Inhibition” value ([2]; 1 × 10^-6 mole/l) was 4% and the “3H-Imipramin % Inhibition” value ([1]; 1 × 10^-4) was 86%. The “3H-Imipramin % Inhibition” value ([1]; 1 × 10^-6 mole/l) was 27% and the IC50 [1] was 3 µM.
In the case of Nc1cc(-c2ccncc2)c[nH]c1=O [Compound B, 3-Amino-5-(4-pyridyl)-2-pyridone, reference compound], the “Blood Pressure diast.” value ([3]; 0.1 mg/kg i.v.) is reported as -3%, the “Blood Pressure syst.” value ([3]; 0.1 mg/kg i.v.) is reported as -3% and the “Myocardial Contractility” value ([3]; 0.1 mg/kg i.v.) is reported as “+5%”. For the same compound, the “Pulse Frequency” value ([3]; 0.1 mg/kg i.v.) was 0%, the “Blood Pressure diast.” value ([3]; 0.316 mg/kg i.v.) was -4% and the “Blood Pressure syst.” value ([3]; 0.316 mg/kg i.v.) was -2%. For the same compound, the “Myocardial Contractility” value ([3]; 0.316 mg/kg i.v.) was “+25%”, the “Pulse Frequency” value ([3]; 0.316 mg/kg i.v.) was “+1%” and the “Blood Pressure diast.” value ([3]; 1.0 mg/kg i.v.) was -22%. For the same compound, the “Blood Pressure syst.” value ([3]; 1.0 mg/kg i.v.) was -15%, the “Myocardial Contractility” value ([3]; 1.0 mg/kg i.v.) was “+40%” and the “Pulse Frequency” value ([3]; 1.0 mg/kg i.v.) was 0%. The “Blood Pressure diast.” value ([3]; 3.16 mg/kg i.v.) was -51%, the “Blood Pressure syst.” value ([3]; 3.16 mg/kg i.v.) was -35% and the “Myocardial Contractility” value ([3]; 3.16 mg/kg i.v.) was “+30%”. For the same compound, the “Pulse Frequency” value ([3]; 3.16 mg/kg i.v.) was -20%, the activation at 1000 µM [4, 6] was 20% and the activation at 100 µM [4] was 2%. For the same compound, the activation at 1000 µM [5, 6] was 21% and the activation at 100 µM [5] was 4%.
For O=c1ccc(-c2ccc(Cn3ccnc3)s2)n[nH]1 [Compound A, 6-[5-(Imidazol-1-yl-methyl)-thien-2-yl]-3(2H)-pyridazinone], the “Blood Pressure diast.” value ([3]; 0.1 mg/kg i.v.) was -1%, the “Blood Pressure syst.” value ([3]; 0.1 mg/kg i.v.) was “+1%” and the “Myocardial Contractility” value ([3]; 0.1 mg/kg i.v.) was “+24%”. For the same compound, the “Pulse Frequency” value ([3]; 0.1 mg/kg i.v.) was “+1%”, the “Blood Pressure diast.” value ([3]; 0.316 mg/kg i.v.) was -6% and the “Blood Pressure syst.” value ([3]; 0.316 mg/kg i.v.) was 0%. For the same compound, the “Myocardial Contractility” value ([3]; 0.316 mg/kg i.v.) was “+32%”, the “Pulse Frequency” value ([3]; 0.316 mg/kg i.v.) was “+1%” and the “Blood Pressure diast.” value ([3]; 1.0 mg/kg i.v.) was -18%. The “Blood Pressure syst.” value ([3]; 1.0 mg/kg i.v.) was -8%, the “Myocardial Contractility” value ([3]; 1.0 mg/kg i.v.) was “+42%” and the “Pulse Frequency” value ([3]; 1.0 mg/kg i.v.) was -9%. For the same compound, the “Blood Pressure diast.” value ([3]; 3.16 mg/kg i.v.) was -33%, the “Blood Pressure syst.” value ([3]; 3.16 mg/kg i.v.) was -19% and the “Myocardial Contractility” value ([3]; 3.16 mg/kg i.v.) was “+51%”. For the same compound, the “Pulse Frequency” value ([3]; 3.16 mg/kg i.v.) was -15%, the activation at 100 µM [4] was 19% and the activation at 100 µM [5] was 44%.
For Cl.O=c1ccc(-c2ccc(Cn3ccnc3)s2)nn1CCN1CCOCC1 [E, 6-[5-(Imidazol-1-yl-methyl)-thien-2-yl]-2-(2-morpholino-ethyl)-3(2H)-pyridazinon-hydrochloride], the “3H-Flunitrazepam % Inhibition” value ([2]; 1 × 10^-4 mole/l) was 74%, the “3H-Flunitrazepam % Inhibition” value ([2]; 1 × 10^-6 mole/l) was 19% and the IC50 [2] was 9 µM. For the same compound, the “3H-Imipramin % Inhibition” value ([1]; 1 × 10^-4) was 40% and the “3H-Imipramin % Inhibition” value ([1]; 1 × 10^-6 mole/l) was 4%.
Cc1cc(-c2ccccc2)nn(CCN2CCOCC2)c1=O.Cl [H, 4-Methyl-2-(2-morpholino-ethyl)-6-phenyl-3(2H)-pyridazinon-hydrochloride, reference compound] was tested, and the “3H-Flunitrazepam % Inhibition” value ([2]; 1 × 10^-4 mole/l) was 14%, the “3H-Flunitrazepam % Inhibition” value ([2]; 1 × 10^-6 mole/l) was 0% and the “3H-Imipramin % Inhibition” value ([1]; 1 × 10^-4) was 36%. The “3H-Imipramin % Inhibition” value ([1]; 1 × 10^-6 mole/l) was 8%.
Cl.O=c1ccc(-c2ccc(Cn3ccnc3)s2)nn1CCN1CCCCC1 [F, 6-[5-(Imidazol-1-yl-methyl)-thien-2-yl]-2-(2-piperidino-ethyl)-3(2H)-pyridazinon-hydrochloride] was tested, and the “3H-Flunitrazepam % Inhibition” value ([2]; 1 × 10^-4 mole/l) was 66%, the “3H-Flunitrazepam % Inhibition” value ([2]; 1 × 10^-6 mole/l) was 12% and the IC50 [2] was 90 µM. For the same compound, the “3H-Imipramin % Inhibition” value ([1]; 1 × 10^-4) was 62%, the “3H-Imipramin % Inhibition” value ([1]; 1 × 10^-6 mole/l) was 7% and the IC50 [1] was 7 µM.
Compound CN1CCN=C(c2ccccc2)c2cc(Cl)ccc21 [Medazepam, reference compound] has an IC50 [2] of 3.9 µM.
